Tests used:
BCR-NTRK1 BaF3 cells = target: T1, BCR-NTRK1 BaF3 cells (Homo sapiens, UniProt P04629); test: BaF3 BCR-NTRK1 cell proliferation assay (ATPlite); assay type: cell-based; conditions: read-out: Inhibition of Cell Proliferation IC50, BCR/BaF3 TrkA
T1 construct: fused on or other part: P11274 (Breakpoint cluster region protein)
Method in brief: (§1)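 BaF3 lines were seeded at 10,000 cells/well in growth medium with 1 mg/mL G418 but no IL-3, and MV-4-11 cells at 25,000 cells/well; plates were left overnight at 37 °C. Compounds were added as an 8-point 1:3 series with a top concentration of 10 μM and incubated 3 days. IC50 was taken from ATPlite luminescence.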

BCR-NTRK2 BaF3 cells = target: T2, BCR-NTRK2 BaF3 cells (Homo sapiens, UniProt Q16620); test: BaF3 BCR-NTRK2 cell proliferation assay (ATPlite); assay type: cell-based; conditions: read-out: Inhibition of Cell Proliferation IC50, BCR/BaF3 TrkB
T2 construct: fused on or other part: P11274 (Breakpoint cluster region protein)
Method in brief: as §1

SKNSH cells = test: SKNSH (human neuroblastoma) cell proliferation assay (ATPlite); assay type: cell-based; conditions: SK-N-SH, read-out: Inhibition of Cell Proliferation IC50, SKNSH
Method in brief: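 SK-N-SH human neuroblastoma cells grown in RPMI with 10% FBS were pelleted, resuspended at 2×10^4 cells/mL, and plated at 3,000 cells per well (150 μL) in 96-well plates, then kept overnight at 37° C. in 5% CO2. Compounds in an 8-point 1:3 DMSO series were added as 0.75 μL aliquots.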

CYP2C19 = CYP2C19 (Homo sapiens, UniProt P33261); test: CYP2C19 inhibition (fluorescent substrate CEC); assay type: in vitro ADME; conditions: read-out: Cyp IC50 2C19
Method in brief: (§2)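 Test compounds, 10-point 1:1 serial dilutions in NADPH-regenerating cofactor mix, were preincubated 10 min at 37° C before recombinant enzyme and fluorogenic substrate reactions at 37° C (CYP1A2 15 min; CYP2C9 45 min; CYP2C19, 2D6 30 min). Product fluorescence was read at 409 ex with 460 em (1A2, 2C19) or 530 em (2C9, 2D6), and IC50 fitted from signal versus concentration.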

CYP2D6 = CYP2D6 (Homo sapiens, UniProt P10635); test: CYP2D6 inhibition (fluorescent substrate AMMC); assay type: in vitro ADME; conditions: read-out: Cyp IC50 2D6
Method in brief: as §2

T1 sequence (P04629 510-781): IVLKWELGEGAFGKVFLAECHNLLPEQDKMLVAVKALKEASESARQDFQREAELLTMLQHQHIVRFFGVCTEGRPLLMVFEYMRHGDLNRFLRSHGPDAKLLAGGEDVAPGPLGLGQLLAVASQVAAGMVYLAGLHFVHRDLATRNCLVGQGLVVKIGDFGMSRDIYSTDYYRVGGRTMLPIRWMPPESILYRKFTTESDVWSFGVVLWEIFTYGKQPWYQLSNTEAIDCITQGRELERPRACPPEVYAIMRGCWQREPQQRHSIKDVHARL
CYP2C19, sequence (P33261 whole entry): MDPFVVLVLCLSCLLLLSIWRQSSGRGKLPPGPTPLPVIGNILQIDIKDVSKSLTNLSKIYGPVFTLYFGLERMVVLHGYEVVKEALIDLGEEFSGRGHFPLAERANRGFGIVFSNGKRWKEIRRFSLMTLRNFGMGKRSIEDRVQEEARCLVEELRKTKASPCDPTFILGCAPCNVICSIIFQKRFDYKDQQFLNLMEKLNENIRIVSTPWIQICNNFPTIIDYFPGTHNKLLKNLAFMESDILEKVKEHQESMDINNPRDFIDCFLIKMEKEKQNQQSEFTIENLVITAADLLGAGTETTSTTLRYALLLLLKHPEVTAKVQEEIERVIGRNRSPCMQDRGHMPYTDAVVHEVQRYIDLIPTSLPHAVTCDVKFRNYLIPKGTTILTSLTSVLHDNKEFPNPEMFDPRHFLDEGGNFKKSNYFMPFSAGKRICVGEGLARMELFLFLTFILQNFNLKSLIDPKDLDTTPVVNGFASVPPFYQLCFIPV
T2 sequence (Q16620 538-807): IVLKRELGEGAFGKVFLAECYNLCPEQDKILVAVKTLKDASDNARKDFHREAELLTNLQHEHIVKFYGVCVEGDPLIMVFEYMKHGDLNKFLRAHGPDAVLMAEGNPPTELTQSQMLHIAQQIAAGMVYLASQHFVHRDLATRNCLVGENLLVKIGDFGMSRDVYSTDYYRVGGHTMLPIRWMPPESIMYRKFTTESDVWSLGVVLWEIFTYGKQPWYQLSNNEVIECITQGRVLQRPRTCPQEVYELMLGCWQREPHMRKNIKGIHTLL
CYP2D6, sequence (P10635 whole entry): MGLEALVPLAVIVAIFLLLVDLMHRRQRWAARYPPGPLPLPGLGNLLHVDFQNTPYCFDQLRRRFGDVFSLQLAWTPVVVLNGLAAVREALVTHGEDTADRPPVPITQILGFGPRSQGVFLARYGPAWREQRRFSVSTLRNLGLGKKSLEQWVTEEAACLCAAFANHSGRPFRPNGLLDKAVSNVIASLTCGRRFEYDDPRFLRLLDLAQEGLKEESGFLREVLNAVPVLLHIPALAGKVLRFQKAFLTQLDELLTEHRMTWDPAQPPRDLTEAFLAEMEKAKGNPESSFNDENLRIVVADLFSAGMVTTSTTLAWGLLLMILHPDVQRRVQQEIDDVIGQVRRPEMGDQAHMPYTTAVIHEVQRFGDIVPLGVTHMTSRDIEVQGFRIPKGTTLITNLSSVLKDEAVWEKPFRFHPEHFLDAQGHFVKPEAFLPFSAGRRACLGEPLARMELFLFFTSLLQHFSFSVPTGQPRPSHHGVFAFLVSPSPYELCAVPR

| IC50 (BCR-NTRK1 BaF3 cells) [µM] | IC50 (BCR-NTRK2 BaF3 cells) [µM] | IC50 (SKNSH cells) [µM] | IC50 (CYP2C19) [µM] | IC50 (CYP2D6) [µM] | SMILES |
| --- | --- | --- | --- | --- | --- |
| < 0.1 | < 0.1 | > 1 | 5 to 10 | > 10 | CCOc1ncnc2[nH]cc(C(=O)c3ccc(Nc4ccc(OC)nc4)nc3F)c12 [Compound P-4025, (4-Ethoxy-7H-pyrrolo[2,3-d]pyrimidin-5-yl)-[2-fluoro-6-(6-methoxy-pyridin-3-ylamino)-pyridin-3-yl]-methanone] |
| < 1 | < 0.1 | > 1 | > 10 | > 10 | Fc1nc(NC2CCC(F)(F)CC2)ccc1Cc1c[nH]c2ncnc(NCC(F)(F)F)c12 [Compound P-4128, 5-[[6-[(4,4-difluorocyclohexyl)amino]-2-fluoro-3-pyridyl]methyl]-N-(2,2,2-trifluoroethyl)-7H-pyrrolo[2,3-d]pyrimidin-4-amine] |
| < 1 | < 0.1 | > 10 | > 10 | 5 to 10 | Fc1nc(NC2CCC(F)(F)CC2)ccc1Cc1c[nH]c2ncnc(NC3CC3)c12 [Compound P-4129, N-cyclopropyl-5-[[6-[(4,4-difluorocyclohexyl)amino]-2-fluoro-3-pyridyl]methyl]-7H-pyrrolo[2,3-d]pyrimidin-4-amine] |
| < 0.1 | < 0.01 | < 10 | < 5 | > 10 | Fc1nc(Nc2ccc(C3CC3)nc2)ccc1Cc1c[nH]c2ncnc(NCC(F)(F)F)c12 [Compound P-4130, 5-[[6-[(6-cyclopropyl-3-pyridyl)amino]-2-fluoro-3-pyridyl]methyl]-N-(2,2,2-trifluoroethyl)-7H-pyrrolo[2,3-d]pyrimidin-4-amine] |

Source: patent US8901118B2, “Compounds and methods for kinase modulation, and indications therefor” (Plexxikon Inc., priority 2010, dated 2014)
